According to PubChem BioAssay AID1918938 (Molecular Pharmacology Branch, DTP, NCI, 2023):

Tested on: 556581-035-R-J1-PDC complex spheroid viability
Assay: Anticancer human tumor 556581-035-R-J1-PDC patient-derived ovarian carcinoma cell line growth inhibition
Conditions: for IC50: curve of first compound; for viability, T/C: stronger effect = lower value
Outline: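 Complex spheroids of tumor cells with HUVEC and human MSCs, exposed to iadademstat combined with other agents. Each agent tested in half-log steps from near clinical Cmax (else 10 microM top), DMSO ≤0.25%.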

[1] = second compound 0.1 µM, first compound 0.0316 µM
[2] = second compound 0.1 µM, first compound 0.1 µM
[3] = second compound 0.1 µM, first compound 0.316 µM
[4] = second compound 0.1 µM, first compound 1 µM
[5] = second compound 0.316 µM, first compound 0.0316 µM
[6] = second compound 0.316 µM, first compound 0.1 µM
[7] = second compound 0.316 µM, first compound 0.316 µM
[8] = second compound 0.316 µM, first compound 1 µM
[9] = second compound 1 µM, first compound 0.0316 µM
[10] = second compound 1 µM, first compound 0.1 µM
[11] = second compound 1 µM, first compound 0.316 µM
[12] = second compound 1 µM, first compound 1 µM
[13] = second compound 3.16 µM, first compound 0.0316 µM
[14] = second compound 3.16 µM, first compound 0.1 µM
[15] = second compound 3.16 µM, first compound 0.316 µM
[16] = second compound 3.16 µM, first compound 1 µM
[17] = second compound 10 µM, first compound 0.0316 µM
[18] = second compound 10 µM, first compound 0.1 µM
[19] = second compound 10 µM, first compound 0.316 µM
[20] = second compound 10 µM, first compound 1 µM
[21] = second compound 0.1 µM, first compound 0.00949 µM
[22] = second compound 0.1 µM, first compound 0.03 µM
[23] = second compound 0.1 µM, first compound 0.0949 µM
[24] = second compound 0.1 µM, first compound 0.3 µM
[25] = second compound 0.1 µM, first compound 0.949 µM
[26] = second compound 0.1 µM, first compound 3 µM
[27] = second compound 0.316 µM, first compound 0.00949 µM
[28] = second compound 0.316 µM, first compound 0.03 µM
[29] = second compound 0.316 µM, first compound 0.0949 µM
[30] = second compound 0.316 µM, first compound 0.3 µM
[31] = second compound 0.316 µM, first compound 0.949 µM
[32] = second compound 0.316 µM, first compound 3 µM
[33] = second compound 1 µM, first compound 0.00949 µM
[34] = second compound 1 µM, first compound 0.03 µM
[35] = second compound 1 µM, first compound 0.0949 µM
[36] = second compound 1 µM, first compound 0.3 µM
[37] = second compound 1 µM, first compound 0.949 µM
[38] = second compound 1 µM, first compound 3 µM
[39] = second compound 3.16 µM, first compound 0.00949 µM
[40] = second compound 3.16 µM, first compound 0.03 µM
[41] = second compound 3.16 µM, first compound 0.0949 µM
[42] = second compound 3.16 µM, first compound 0.3 µM
[43] = second compound 3.16 µM, first compound 0.949 µM
[44] = second compound 3.16 µM, first compound 3 µM
[45] = second compound 10 µM, first compound 0.00949 µM
[46] = second compound 10 µM, first compound 0.03 µM
[47] = second compound 10 µM, first compound 0.0949 µM
[48] = second compound 10 µM, first compound 0.3 µM
[49] = second compound 10 µM, first compound 0.949 µM
[50] = second compound 10 µM, first compound 3 µM
[51] = second compound 0.1 µM, first compound 0.00316 µM
[52] = second compound 0.1 µM, first compound 0.01 µM
[53] = second compound 0.316 µM, first compound 0.00316 µM
[54] = second compound 0.316 µM, first compound 0.01 µM
[55] = second compound 1 µM, first compound 0.00316 µM
[56] = second compound 1 µM, first compound 0.01 µM
[57] = second compound 3.16 µM, first compound 0.00316 µM
[58] = second compound 3.16 µM, first compound 0.01 µM
[59] = second compound 10 µM, first compound 0.00316 µM
[60] = second compound 10 µM, first compound 0.01 µM
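Note: spheroids exposed to agents for seven days.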
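Throughout, for viability, T/C: 100% = DMSO vehicle control wells.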

CC1(C)CCC(CN2CCN(c3ccc(C(=O)NS(=O)(=O)c4ccc(NCC5CCOCC5)c([N+](=O)[O-])c4)c(Oc4cnc5[nH]ccc5c4)c3)CC2)=C(c2ccc(Cl)cc2)C1 + NC1CC1c1ccc(-c2cccc(O)c2)cc1
IC50 (second compound 0.1 µM): 4100 nM
IC50 (second compound 0.316 µM): 3940 nM
IC50 (second compound 1 µM): 4040 nM
IC50 (second compound 3.16 µM): 3820 nM
IC50 (second compound 10 µM): 3230 nM
viability, T/C [1]: 89.8%
viability, T/C [2]: 85.4%
viability, T/C [3]: 73.2%
viability, T/C [4]: 76.5%
viability, T/C (second compound 0.1 µM, first compound 3.16 µM): 65.5%
viability, T/C (second compound 0.1 µM, first compound 10 µM): 3.69%
viability, T/C [5]: 83.2%
viability, T/C [6]: 82%
viability, T/C [7]: 73.2%
viability, T/C [8]: 75.4%
viability, T/C (second compound 0.316 µM, first compound 3.16 µM): 61.6%
viability, T/C (second compound 0.316 µM, first compound 10 µM): 4.26%
viability, T/C [9]: 82.6%
viability, T/C [10]: 87%
viability, T/C [11]: 81.9%
viability, T/C [12]: 65.3%
viability, T/C (second compound 1 µM, first compound 3.16 µM): 67.4%
viability, T/C (second compound 1 µM, first compound 10 µM): 5.26%
viability, T/C [13]: 83.5%
viability, T/C [14]: 90.3%
viability, T/C [15]: 72.2%
viability, T/C [16]: 73.9%
viability, T/C (second compound 3.16 µM, first compound 3.16 µM): 61.3%
viability, T/C (second compound 3.16 µM, first compound 10 µM): 4.73%
viability, T/C [17]: 85.4%
viability, T/C [18]: 81.7%
viability, T/C [19]: 75.6%
viability, T/C [20]: 65.4%
viability, T/C (second compound 10 µM, first compound 3.16 µM): 55.2%
viability, T/C (second compound 10 µM, first compound 10 µM): 3.86%

CCN(c1cc(-c2ccc(CN3CCOCC3)cc2)cc(C(=O)NCc2c(C)cc(C)[nH]c2=O)c1C)C1CCOCC1 + NC1CC1c1ccc(-c2cccc(O)c2)cc1
IC50 (second compound 0.1 µM): 776 nM
IC50 (second compound 0.316 µM): 732 nM
IC50 (second compound 1 µM): 633 nM
IC50 (second compound 3.16 µM): 466 nM
IC50 (second compound 10 µM): 666 nM
viability, T/C [21]: 106%
viability, T/C [22]: 92.2%
viability, T/C [23]: 86.7%
viability, T/C [24]: 73.4%
viability, T/C [25]: 42.5%
viability, T/C [26]: 25.1%
viability, T/C [27]: 105%
viability, T/C [28]: 95.5%
viability, T/C [29]: 78.5%
viability, T/C [30]: 69.3%
viability, T/C [31]: 42.7%
viability, T/C [32]: 27.4%
viability, T/C [33]: 94.2%
viability, T/C [34]: 84.7%
viability, T/C [35]: 84.8%
viability, T/C [36]: 66.8%
viability, T/C [37]: 40.5%
viability, T/C [38]: 30.5%
viability, T/C [39]: 98.7%
viability, T/C [40]: 102%
viability, T/C [41]: 78%
viability, T/C [42]: 58.1%
viability, T/C [43]: 39.4%
viability, T/C [44]: 32.5%
viability, T/C [45]: 83.6%
viability, T/C [46]: 87.7%
viability, T/C [47]: 82.1%
viability, T/C [48]: 63.6%
viability, T/C [49]: 44.6%
viability, T/C [50]: 30.6%

COc1cc(Nc2ncc3c(n2)-c2ccc(Cl)cc2C(c2c(F)cccc2OC)=NC3)ccc1C(=O)O + NC1CC1c1ccc(-c2cccc(O)c2)cc1
IC50 (second compound 0.1 µM): 42.2 nM
IC50 (second compound 0.316 µM): 27.5 nM
IC50 (second compound 1 µM): 50.5 nM
IC50 (second compound 3.16 µM): 440 nM
IC50 (second compound 10 µM): > 1000 nM
viability, T/C [51]: 57.3%
viability, T/C [52]: 51.5%
viability, T/C [1]: 53.3%
viability, T/C [2]: 44.6%
viability, T/C [3]: 45.7%
viability, T/C [4]: 37.3%
viability, T/C [53]: 57.6%
viability, T/C [54]: 56.5%
viability, T/C [5]: 51.2%
viability, T/C [6]: 43.1%
viability, T/C [7]: 37.4%
viability, T/C [8]: 37.8%
viability, T/C [55]: 50.5%
viability, T/C [56]: 49%
viability, T/C [9]: 59.7%
viability, T/C [10]: 42.9%
viability, T/C [11]: 46.4%
viability, T/C [12]: 37.9%
viability, T/C [57]: 58.3%
viability, T/C [58]: 57.4%
viability, T/C [13]: 60.4%
viability, T/C [14]: 49.7%
viability, T/C [15]: 56%
viability, T/C [16]: 42.5%
viability, T/C [59]: 73.8%
viability, T/C [60]: 60.5%
viability, T/C [17]: 59.7%
viability, T/C [18]: 55.5%
viability, T/C [19]: 52%
viability, T/C [20]: 50.2%

Cn1ncnc1C1c2n[nH]c(=O)c3cc(F)cc(c23)NC1c1ccc(F)cc1 (stereo not given) + NC1CC1c1ccc(-c2cccc(O)c2)cc1
IC50 (second compound 0.1 µM): > 100 nM
IC50 (second compound 0.316 µM): > 100 nM
IC50 (second compound 1 µM): > 100 nM
IC50 (second compound 3.16 µM): > 100 nM
IC50 (second compound 10 µM): > 100 nM
viability, T/C (second compound 0.1 µM, first compound 0.000316 µM): 90.1%
viability, T/C (second compound 0.1 µM, first compound 0.001 µM): 89.6%
viability, T/C [51]: 87.5%
viability, T/C [52]: 88.7%
viability, T/C [1]: 96.2%
viability, T/C [2]: 81.4%
viability, T/C (second compound 0.316 µM, first compound 0.000316 µM): 89.6%
viability, T/C (second compound 0.316 µM, first compound 0.001 µM): 98.1%
viability, T/C [53]: 80.3%
viability, T/C [54]: 84.9%
viability, T/C [5]: 94.5%
viability, T/C [6]: 74.1%
viability, T/C (second compound 1 µM, first compound 0.000316 µM): 82.8%
viability, T/C (second compound 1 µM, first compound 0.001 µM): 88.5%
viability, T/C [55]: 109%
viability, T/C [56]: 81.6%
viability, T/C [9]: 87%
viability, T/C [10]: 81.8%
viability, T/C (second compound 3.16 µM, first compound 0.000316 µM): 94.4%
viability, T/C (second compound 3.16 µM, first compound 0.001 µM): 90%
viability, T/C [57]: 81.5%
viability, T/C [58]: 80.5%
viability, T/C [13]: 77.7%
viability, T/C [14]: 91.6%
viability, T/C (second compound 10 µM, first compound 0.000316 µM): 86.8%
viability, T/C (second compound 10 µM, first compound 0.001 µM): 83.2%
viability, T/C [59]: 86.5%
viability, T/C [60]: 87.2%
viability, T/C [17]: 75.3%
viability, T/C [18]: 88.2%

NS(=O)(=O)OCC1CC(n2ccc3c(NC4CCc5ccccc54)ncnc32)CC1O (stereo not given) + NC1CC1c1ccc(-c2cccc(O)c2)cc1
IC50 (second compound 0.1 µM): 321 nM
IC50 (second compound 0.316 µM): 280 nM
IC50 (second compound 1 µM): 334 nM
IC50 (second compound 3.16 µM): 255 nM
IC50 (second compound 10 µM): 134 nM
viability, T/C [21]: 104%
viability, T/C [22]: 81.6%
viability, T/C [23]: 66.4%
viability, T/C [24]: 53.8%
viability, T/C [25]: 35.4%
viability, T/C [26]: 15.2%
viability, T/C [27]: 96.3%
viability, T/C [28]: 81%
viability, T/C [29]: 66.1%
viability, T/C [30]: 53.6%
viability, T/C [31]: 27%
viability, T/C [32]: 18.5%
viability, T/C [33]: 92.5%
viability, T/C [34]: 81.4%
viability, T/C [35]: 77.5%
viability, T/C [36]: 51.7%
viability, T/C [37]: 29.5%
viability, T/C [38]: 20.7%
viability, T/C [39]: 98.9%
viability, T/C [40]: 75.7%
viability, T/C [41]: 68.5%
viability, T/C [42]: 45.9%
viability, T/C [43]: 32.6%
viability, T/C [44]: 17.4%
viability, T/C [45]: 87.8%
viability, T/C [46]: 74.4%
viability, T/C [47]: 56.4%
viability, T/C [48]: 35.2%
viability, T/C [49]: 20.3%
viability, T/C [50]: 8.52%
